Earlier results in patent publication US10722516B2, “Use of landiolol hydrochloride in the long-term treatment of tachyarrhythmias” (AOP Orphan Pharmaceuticals AG, priority 2013, dated 2020).
Where a name gives a salt, the structure may show the parent alone.

Conditions: in vivo; cited from earlier work

SMILES: COC(=O)CCc1ccc(OCC(O)CNC(C)C)cc1 (stereo not drawn) [Esmolol, Esmolol hydrochloride]
- alpha-distribution half-life: approximately 2 minutes
- total body clearance relative to cardiac output: ~3 times
- total body clearance relative to hepatic blood flow: ~14 times
